Measurements as given in patent US5763596A, “C-4' modified adenosine kinase inhibitors” (Metabasis Therapeutics, Inc., priority 1996, dated 1998).

Experiments:
adenosine kinase = adenosine kinase (AK) inhibition; format: biochemical, pig heart or recombinant human; conditions: 0.5 μM [U-14C] adenosine, pH 7.0, 20 minutes
Description: Adenosine kinase activity was measured essentially as described by Yamada et al. (Yamada, Y., Goto, H., Ogasawara, N. (1988) Biochim. Biophys. Acta 660, 36-43.) with a few minor modifications. […] Natl. Acad. Sci. […] The reactions were incubated for 20 minutes at […] The assay was quenched upon spotting 30 μL aliquots onto 2 cm^2 pieces of Whatman DE81 anion exchange paper. The papersquares were washed for 3 minutes in 6 L distilled/deionized water to remove the unreacted adenosine. The washed squares were rinsed in 95% ethanol and dried in an oven at 100° C. for 10 minutes. The amount of ^14 C-AMP was quantified by scintillation counting.

male Lewis rats = experiment: adjuvant arthritis; format: in vivo, rat
Description: Heat-killed Mycobacterium butyricum was ground to a find powder and suspended in heavy mineral oil at 10 mg/ml. The suspension was injected subcutaneously into the base of the tail of male Lewis rats at 0.1 ml per rat. This immunization procedure induces an agressive arthritis that is apparent at day 10-12 and rapidly worsens. The volumes of the hind paws were measured before immunization and on days 12, 15 and 20 after immunization. The baseline paw volume was subtracted from the arthritic volumes to yield paw swelling. AK inhibitors were given by daily oral gavage beginning on day 4 after immunization, using polyethylene glycol-400 as the vehicle. Control rats received vehicle only. Percent inhibition was calculated based on paw swelling in AK inhibitor treated group compared to vehicle treated group, and is reported in Table 11.

[1] = 10 mg/kg daily oral gavage from day 4
[2] = 20 mg/kg daily oral gavage from day 4

## O[C@@H]1[C@H](O)CO[C@H]1n1cc(-c2ccccc2)c2c(Nc3ccc(F)cc3)ncnc21 [compound 28]
Adenosine kinase
  IC50: 28 nM
Male Lewis rats; [1]
  % inh at day 12 (paw swelling): 29 ± 7%
  % inh at day 15 (paw swelling): 22 ± 4%
Male Lewis rats; [2]
  % inh at day 12 (paw swelling): 52 ± 23%
  % inh at day 15 (paw swelling): 52 ± 22%
  % inh at day 20 (paw swelling): 40 ± 8%
